Test results: patent publication US11351209B2 (priority 2016, dated 2022)
Entries after “also recorded” stand apart in the source; their conditions may differ.

Assays:
orthotopic 4T1 tumours = test: Efficacy study, oral IC87114 and intravenous VVL15, orthotopic 4T1 tumours; type: in vivo, BALB/c mice; conditions: 4T1 orthotopic; IC87114 75 mg kg^−1 oral gavage three hours before intravenous 1×10^8 PFU VVL15 (Group D), days 12, 15, 17; vs all other groups
CT26 flank tumours = test: Efficacy study, oral IC87114 and intravenous VVL15, CT26 flank tumours; type: in vivo, BALB/c mice; conditions: IC87114 50 mg kg^−1 oral gavage three hours before intravenous 1×10^8 PFU VVL15 (Group D), days 8, 11, 13, vs all other groups

Cc1ccccc1-n1c(Cn2cnc3c(N)ncnc32)nc2cccc(C)c2c1=O [IC87114, 2-[(6-amino-9H-purin-9-yl)methyl]-5-methyl-3-(2-methylphenyl)-4(3H)-quinazolinone]
tumour burden (orthotopic 4T1 tumours): significantly reduces the tumour burden; also recorded: significantly less tumour burden; also recorded: reduced tumour burden | tumour burden (CT26 flank tumours): significantly reduces the tumour burden; also recorded: significantly less tumour burden; also recorded: reduced tumour burden
